In ChEMBL document CHEMBL4342418, “1,2,3-Triazole-containing hybrids as potential anticancer agents: Current developments, action mechanisms and structure-activity relationships” (Eur J Med Chem, 2019):
≈ marks a conversion by molar mass, not a printed value.

What was measured:
MDA-MB-231 [1] = assay: Antiproliferative activity against human MDA-MB-231 cells by SRB assay; assay type: functional
HepG2 [2] = assay: Antiproliferative activity against human HepG2 cells by SRB assay; assay type: functional, cell-based
HeLa [3] = assay: Antiproliferative activity against human HeLa cells by SRB assay; assay type: functional, cell-based
DU-145 [4] = assay: Antiproliferative activity against human DU145 cells by SRB assay; assay type: functional, cell-based
T47D [5] = assay: Antiproliferative activity against human T47D cells assessed as reduction in cell viability after 48 hrs by MTT assay; assay type: functional, cell-based
Caco-2 = assay: Antiproliferative activity against human Caco2 cells assessed as reduction in cell viability after 48 hrs by MTT assay; assay type: functional, cell-based; conditions: Caco-2, 48 h
MCF7 [6] = assay: Antiproliferative activity against human MCF7 cells assessed as reduction in cell viability after 48 hrs by MTT assay; assay type: functional, cell-based; conditions: MCF7, 48 h
HCT-116 [7] = assay: Antiproliferative activity against human HCT116 cells assessed as reduction in cell viability after 48 hrs by MTT assay; assay type: functional, cell-based; conditions: HCT-116, 48 h
MCF7 [8] = assay: cells; assay type: functional, cell-based; conditions: Homo sapiens
Description: Antiproliferative activity against human MCF7 cells by MTT assay

HepG2 [9] = assay: Antiproliferative activity against human HepG2 cells by MTT assay; assay type: functional, cell-based
HCT-116 [10] = assay: Antiproliferative activity against human HCT116 cells by MTT assay; assay type: functional, cell-based
MDA-MB-231 [11] = assay: Antiproliferative activity against human MDA-MB-231 cells assessed as reduction in cell viability after 48 hrs by MTT assay; assay type: functional, cell-based; conditions: MDA-MB-231, 48 h
HeLa [12] = assay: Antiproliferative activity against human HeLa cells assessed as reduction in cell viability after 48 hrs by MTT assay; assay type: functional, cell-based
SK-N-SH = assay: Antiproliferative activity against human SK-N-SH cells by MTT assay; assay type: functional, cell-based
MGC-803 = assay: Antiproliferative activity against human MGC803 cells by MTT assay; assay type: functional, cell-based
SUM-159-PT = assay: Antiproliferative activity against human SUM159 cells assessed as reduction in cell viability after 72 hrs by MTT assay; assay type: functional, cell-based
SK-BR-3 = assay: Antiproliferative activity against human SKBR3 cells assessed as reduction in cell viability after 72 hrs by MTT assay; assay type: functional, cell-based; conditions: SK-BR-3, 72 h
KG-1a = assay: Antiproliferative activity against human KG1a cells assessed as reduction in cell viability after 72 hrs by MTT assay; assay type: functional, cell-based
T47D [13] = assay: Antiproliferative activity against human T47D cells assessed as reduction in cell viability after 72 hrs by MTT assay; assay type: functional, cell-based
MCF7 [14] = assay: Antiproliferative activity against human MCF7 cells assessed as reduction in cell viability after 72 hrs by MTT assay; assay type: functional, cell-based; conditions: MCF7, 72 h
A549 [15] = assay: Antiproliferative activity against human A549 cells assessed as reduction in cell viability after 48 hrs by MTT assay; assay type: functional, cell-based; conditions: A549, 48 h
SW480 = assay: Antiproliferative activity against human SW480 cells assessed as reduction in cell viability after 48 hrs by MTT assay; assay type: functional, cell-based; conditions: SW480, 48 h
[16] = Antiproliferative activity against human SMCC7721 cells assessed as reduction in cell viability after 48 hrs by MTT assay; assay type: functional, cell-based
A549 [17] = assay: Antiproliferative activity against human A549 cells by SRB assay; assay type: functional, cell-based
C2C12 = assay: Cytotoxicity against mouse C2C12 cells assessed as reduction in cell viability after 48 hrs by MTT assay; assay type: cell-based; conditions: C2C12, 48 h
HT-29 [18] = assay: Antiproliferative activity against human HT-29 cells assessed as reduction in cell viability after 48 hrs by MTT assay; assay type: functional, cell-based; conditions: HT-29, 48 h
DU-145 [19] = assay: Antiproliferative activity against human DU145 cells assessed as reduction in cell viability after 48 hrs by MTT assay; assay type: functional, cell-based; conditions: DU-145, 48 h
HEK293 = assay: Cytotoxicity against HEK293 cells assessed as reduction in cell viability after 48 hrs by MTT assay; assay type: cell-based; conditions: Homo sapiens, HEK293, 48 h
HT-29 [20] = assay: Antiproliferative activity against human HT-29 cells assessed as reduction in cell viability after 72 hrs by MTT assay; assay type: functional, cell-based; conditions: HT-29, 72 h
MDA-MB-231 [21] = assay: Antiproliferative activity against human MDA-MB-231 cells by MTT assay; assay type: functional, cell-based
MCF-10A = assay: Cytotoxicity against human MCF10A cells by MTT assay; assay type: cell-based

Cc1ccc(-c2nn(Cc3cn(Cc4ccccc4F)nn3)c(=O)o2)cc1
GI50 (MDA-MB-231 [1]): 0.82 to 2.39 µM
GI50 (HepG2 [2]): 0.82 to 2.39 µM
GI50 (HeLa [3]): 0.82 to 2.39 µM
GI50 (DU-145 [4]): 0.82 to 2.39 µM

O=C(Cn1cc(C(O)(c2ccccc2)c2ccccc2)nn1)N1CCN(c2nc3ccccc3s2)CC1
IC50 (T47D [5]): 33 to 154 µM
IC50 (Caco-2): 33 to 154 µM
IC50 (MCF7 [6]): 33 to 154 µM
IC50 (HCT-116 [7]): 33 to 154 µM

CNC(=S)N1N=C(c2nnn(-c3ccc(-n4nnc(C5=NN(C(=S)NC)C(c6ccccc6)C5)c4C)cc3)c2C)CC1c1ccccc1 (centres undefined)
IC50 (MCF7 [8]): 3.46 µg/mL
IC50 (HepG2 [9]): > 100 µg/mL
IC50 (HCT-116 [10]): > 100 µg/mL

O=C(Cn1cc(CCCO)nn1)N1CCN(c2nc3ccccc3s2)CC1
IC50 (T47D [5]): 33 to 48 µM
IC50 (Caco-2): 33 to 48 µM
IC50 (MCF7 [6]): 33 to 48 µM
IC50 (HCT-116 [7]): 33 to 48 µM

N#CC1=C(N)Oc2ccccc2C12C(=O)N(Cc1cn(CCCCBr)nn1)c1ccccc12 (centres undefined)
IC50 (MDA-MB-231 [11]): 4.8 to 9.21 µM
IC50 (HeLa [12]): 4.8 to 9.21 µM
IC50 (MCF7 [6]): 4.8 to 9.21 µM

COc1cc(/C=C/C(=O)c2ccc(OCCCn3cc(CSc4nncs4)nn3)cc2)cc(OC)c1OC
IC50 (SK-N-SH): 1.52 to 10.4 µM
IC50 (HepG2 [9]): 1.52 to 10.4 µM
IC50 (MGC-803): 1.52 to 10.4 µM

Cc1ccc(-c2nn(Cc3cn(Cc4ccccc4)nn3)c(=O)o2)cc1
GI50 (MDA-MB-231 [1]): 0.82 to 2.39 µM
GI50 (HepG2 [2]): 0.82 to 2.39 µM
GI50 (HeLa [3]): 0.82 to 2.39 µM
GI50 (DU-145 [4]): 0.82 to 2.39 µM

Fc1cccc(COc2ccc(Nc3ncnc4ccc(-n5cc(CNC6CCN(Cc7cccnc7)CC6)nn5)cc34)cc2Cl)c1
IC50 (SUM-159-PT): 2.06 to 7.47 µM
IC50 (SK-BR-3): 2.06 to 7.47 µM
IC50 (KG-1a): 2.06 to 7.47 µM

COc1ccc(Cn2cc(CNC(=O)c3cc(-c4ccccc4)on3)nn2)cc1
GI50 (T47D [13]): 27.7 to 85.7 µg/mL (≈ 71.1 to 220 µM)
GI50 (MCF7 [14]): 27.7 to 85.7 µg/mL (≈ 71.1 to 220 µM)

COc1cc([C@@H]2c3cc4c(cc3[C@H](n3cc(CO[C@@H]5O[C@H](COC(C)(C)C)[C@@H](OC(C)(C)C)[C@H](OC(C)(C)C)[C@H]5OC(C)(C)C)nn3)[C@H]3COC(=O)[C@H]23)OCO4)cc(OC)c1OC
IC50 (A549 [15]): 0.49 to 6.7 µM
IC50 (MCF7 [6]): 0.49 to 6.7 µM
IC50 (SW480): 0.49 to 6.7 µM
IC50 [16]: 0.49 to 6.7 µM

COc1cc(/C=C/C(=O)c2ccc(OCCCn3cc(CSC4=NCCS4)nn3)cc2)cc(OC)c1OC
IC50 (SK-N-SH): 1.52 to 10.4 µM
IC50 (HepG2 [9]): 1.52 to 10.4 µM
IC50 (MGC-803): 1.52 to 10.4 µM

O=C(Cn1cc(CO)nn1)N1CCN(c2nc3ccccc3s2)CC1
IC50 (T47D [5]): 33 to 154 µM
IC50 (Caco-2): 33 to 154 µM
IC50 (MCF7 [6]): 33 to 154 µM
IC50 (HCT-116 [7]): 33 to 154 µM

COc1ccc(/C=C/C(=O)c2cc(OC)c(OC)c(OC)c2)cc1OCc1cn(Cc2ccc(F)cc2)nn1
GI50 (A549 [17]): 1.3 to 8.2 µM
GI50 (HepG2 [2]): 1.3 to 8.2 µM
GI50 (HeLa [3]): 1.3 to 8.2 µM
GI50 (DU-145 [4]): 1.3 to 8.2 µM

O=C(Nc1cccc(-n2cc(Oc3ccc(-c4cc(-c5ccc(Oc6cn(-c7cccc(NC(=O)[C@@H]8CCCN8)c7)nn6)cc5)cc(-c5ccc(Oc6cn(-c7cccc(NC(=O)[C@@H]8CCCN8)c7)nn6)cc5)c4)cc3)nn2)c1)[C@@H]1CCCN1
IC50 (C2C12): > 40 µM
IC50 (MCF7 [6]): 7.1 to 13.4 µM
IC50 (HCT-116 [7]): 7.1 to 13.4 µM

CCOC(=O)c1cn(CC(=O)N2CCN(c3nc4ccccc4s3)CC2)nn1
IC50 (T47D [5]): 33 to 154 µM
IC50 (Caco-2): 33 to 154 µM
IC50 (MCF7 [6]): 33 to 154 µM
IC50 (HCT-116 [7]): 33 to 154 µM

COc1ccc(S(=O)(=O)Nc2cccnc2Nc2ccc(O)cc2)cc1 [ABT-751]
IC50 (A549 [15]): 1.31 to 1.62 µM
IC50 (HT-29 [18]): 1.31 to 1.62 µM
IC50 (DU-145 [19]): 1.31 to 1.62 µM
IC50 (HEK293): 1.31 to 1.62 µM

CS(=O)(=O)CCNCc1ccc(-c2ccc3ncnc(Nc4ccc(OCc5cccc(F)c5)c(Cl)c4)c3c2)o1 [LAPATINIB]
IC50 (SUM-159-PT): 9.76 to 20.1 µM
IC50 (SK-BR-3): 9.76 to 20.1 µM
IC50 (KG-1a): 9.76 to 20.1 µM

CNC(=O)c1cc(Oc2ccc(NC(=O)Nc3ccc(Cl)c(C(F)(F)F)c3)cc2)ccn1 [SORAFENIB]
IC50 (HT-29 [20]): 5.29 µM
IC50 (MCF7 [14]): 43.3 µM

CN(C)CCOc1ccc(/C(=C(/CCCl)c2ccccc2)c2ccccc2)cc1 [TOREMIFENE]
IC50 (MDA-MB-231 [21]): 13 µM
IC50 (MCF7 [8]): 7 µM
IC50 (MCF-10A): > 100 µM
